According to ChEMBL document CHEMBL1150903, “Complement-inhibiting cucurbitacin glycosides from Picria fel-terrae” (J Nat Prod, 1998):
The source made the active and inactive calls. The calls are words filed in the database; no cut-off is given here.

Legend:
[1] = Inhibition of human serum classical complement system assessed as modulation of complement pathway by classical hemolytic complement assay
[2] = Inhibition of human serum alternative complement system assessed as modulation of complement pathway by alternative hemolytic complement assay
Candida albicans = assay: Antifungal activity against Candida albicans; type: functional
Staphylococcus aureus = assay: Antibacterial activity against Staphylococcus aureus; type: functional
Aspergillus niger = assay: Antifungal activity against Aspergillus niger; type: functional
Pseudomonas aeruginosa = assay: Antibacterial activity against Pseudomonas aeruginosa; type: functional
Bacillus cereus = assay: Antibacterial activity against Bacillus cereus; type: functional
Human alphaherpesvirus 1 = assay: Antiviral activity against HSV1 assessed as reduction factor of viral titer at 100 ug/ml; type: functional, organism-based
Escherichia coli = assay: Antibacterial activity against Escherichia coli; type: functional
Trichophyton rubrum = assay: Antifungal activity against Trichophyton rubrum; type: functional
[3] = Inhibition of human serum classical complement system assessed as modulation of complement pathway at 420 uM by classical hemolytic complement assay
[4] = Growth inhibition of human NCI60 cells; type: functional
SF-295 = assay: Growth inhibition of human SF295 cells; type: functional

Structure (SMILES)	IC50 [1] [µM]	IC50 [2] [µM]	MIC (Candida albicans) [mg/L]	Activity [1]	MIC (Staphylococcus aureus) [mg/L]	MIC (Aspergillus niger) [mg/L]	MIC (Pseudomonas aeruginosa) [mg/L]	MIC (Bacillus cereus) [mg/L]	Activity (Human alphaherpesvirus 1)	Activity [2]	MIC (Escherichia coli) [mg/L]	MIC (Trichophyton rubrum) [mg/L]	inhibition [3] [%]	GI50 [4] [µM]	TGI [4] [µM]	GI50 (SF-295) [µM]
O=C(/C=C/c1ccc(O)c(O)c1)O[C@H](Cc1ccc(O)c(O)c1)C(=O)O [ROSMARINIC ACID]	81	408														
CC(C)C1=CC(=O)[C@](C)([C@H]2[C@H](O)C[C@@]3(C)[C@@H]4CC=C5[C@@H](CC[C@@H](O[C@@H]6OC[C@@H](O)[C@H](O[C@@H]7O[C@H](CO)[C@@H](O)[C@H](O)[C@H]7O[C@@H]7O[C@@H](C)[C@H](O)[C@@H](O)[C@H]7O)[C@H]6O)C5(C)C)[C@]4(C)C(=O)C[C@]23C)O1 [PICFELTARRACEMIN IV]	131	313	> 100	Dose-dependent effect	> 100	> 100	> 100	> 100	Active	Dose-dependent effect	> 100	> 100				
CC(C)C1=CC(=O)[C@](C)([C@H]2[C@H](O)C[C@@]3(C)[C@@H]4CC=C5[C@@H](CC[C@@H](O[C@@H]6OC[C@@H](O)[C@H](O)[C@H]6O)C5(C)C)[C@]4(C)C(=O)C[C@]23C)O1 [PICFELTARRACEMIN VI]	29	21	> 100	Dose-dependent effect	> 100	> 100	> 100	> 100	Active	Dose-dependent effect	> 100	> 100				
CC(C)C1=CC(=O)[C@](C)([C@H]2[C@H](O)C[C@@]3(C)[C@@H]4CC=C5[C@@H](CC[C@@H](O[C@@H]6O[C@H](CO)[C@@H](O)[C@H](O)[C@H]6O[C@@H]6O[C@@H](C)[C@H](O)[C@@H](O)[C@H]6O)C5(C)C)[C@]4(C)C(=O)C[C@]23C)O1 [PICFELTARRACEMIN IB]	> 420	68	> 100	Dose-dependent effect	> 100	> 100	> 100	> 100	Active	Dose-dependent effect	> 100	> 100	48	> 100	> 100	
CC(C)C1=CC(=O)[C@](C)([C@H]2[C@H](O)C[C@@]3(C)[C@@H]4CC=C5[C@@H](CC[C@@H](O[C@@H]6OC[C@@H](O)[C@H](O)[C@H]6O[C@@H]6O[C@@H](C)[C@H](O)[C@@H](O)[C@H]6O)C5(C)C)[C@]4(C)C(=O)C[C@]23C)O1 [PICFELTARRACEMIN IA]	95	336	> 100	Dose-dependent effect	> 100	> 100	> 100	> 100	Active	Dose-dependent effect	> 100	> 100		> 100	> 100	59
